# Legend:
# [1] = target: T1, ACAT (Rattus norvegicus, UniProt Q7TQM4); assay: ACAT inhibition in liver microsomes of fed rats; assay type: biochemical; settings: liver microsomes of rats fed 0.1% compound, vs Control
# T1 construct: microsomes were separated from liver tissues to be used as an enzyme source; from tissue; host or cells: rat liver microsomes
# T1 sequence (Q7TQM4 1-524): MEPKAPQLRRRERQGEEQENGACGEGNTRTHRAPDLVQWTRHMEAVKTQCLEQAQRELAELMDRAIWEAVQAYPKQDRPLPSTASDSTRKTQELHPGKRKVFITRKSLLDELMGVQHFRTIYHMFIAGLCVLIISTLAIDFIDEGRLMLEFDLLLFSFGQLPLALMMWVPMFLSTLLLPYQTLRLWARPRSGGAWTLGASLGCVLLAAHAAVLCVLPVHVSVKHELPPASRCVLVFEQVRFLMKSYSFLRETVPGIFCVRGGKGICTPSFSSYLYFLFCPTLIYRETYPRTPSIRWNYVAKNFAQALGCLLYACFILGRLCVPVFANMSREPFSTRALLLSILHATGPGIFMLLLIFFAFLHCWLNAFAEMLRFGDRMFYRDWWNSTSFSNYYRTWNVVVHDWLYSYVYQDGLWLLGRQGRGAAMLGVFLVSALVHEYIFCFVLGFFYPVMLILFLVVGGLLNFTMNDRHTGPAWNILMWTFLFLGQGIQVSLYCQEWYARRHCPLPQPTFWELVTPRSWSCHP
# Description: Activity of Tannin or gallic acid in ACAT Inhibition
# To determine the effect of feeding tannin or gallic acid to rats on the activity of ACAT, microsomes were separated from liver tissues to be used as an enzyme source.
# 1 g each of the livers taken from each group of rats of Example 2 was homogenized in 5 ml of homogenization medium (0.1 M KH2 PO4, pH 7.4, 0.1 mM EDTA and 10 mM β-mercaptoethanol). The homogenate was centrifuged at 3,000xg for 15 min. at 4° C. and the supernatant thus obtained was centrifuged at 15,000xg for 15 min. at 4° C. to obtain a supernatant. The supernatant was put into an ultracentrifuge tube (Beckman) and centrifuged at 100,000 xg for 1 hour at 4° C. to obtain microsomal pellets, which were then suspended in 3 ml of the homogenization medium and centrifuged at 100,000 xg for 1 hour at 4° C. […] The protein concentration of the resulting suspension was determined by Lowry's method and then adjusted to 4 to 8 mg/ml. […]
# 200 μl of the resulting supernatant was put in a scintillation bottle and 4 ml of scintillation fluid (Lumac) was added thereto. The mixture was assayed for radioactivity with 1450 Microbeta liquid scintillation counter (Wallacoy, Finland). ACAT activity was calculated as picomoles of cholesteryl oleate synthesized per min. per mg protein (pmoles/min/mg protein) The result is shown in Table III.
# [2] = test system: main artery (arterial endothelium); assay: analysis for fatty streak in the main artery of rabbits; assay type: in vivo, New Zealand White rabbits; settings: for Fatty streak (proportion of stained region to total arterial area): 1% cholesterol diet plus 0.1% compound (Lovastatin 1 mg/kg), Control 35 ± 14; for Fatty streak (proportion of stained region to total arterial area) / plaque formation in the endothelium of the main artery: 6 weeks; for deposition of macrophages on the arterial endothelium: blood cholesterol level high
# Description: 30 three-month-old male New Zealand White rabbits (Yeonam Horticulture and Animal Husbandry College, Korea), each weighing about 2.5 to 2.6 kg, were raised under a condition of temperature 20+2° C., relative humidity 55±5%, and photoperiod 12L/12D. The rabbits were divided into 5 groups and 5 groups of rabbits were fed with 5 different diets, i.e., RC4 diet (Oriental Yeast Co., Japan) containing 1% cholesterol (Control group, 1); 1% cholesterol plus 1 mg/kg Lovastatin® (Merck, U.S.A.) (Lovastatin® group, 2); 1% cholesterol plus 0.1% tannin (3); 1% cholesterol plus 0.1% gallic acid (4); and 1% cholesterol plus 0.1% ellagic acid (5), respectively. RC4 diet comprises 7.6% moisture, 22.8% crude protein, 2.8% crude fat, 8.8% crude ash, 14.4% crude cellulose and 43.6% soluble nitrogen-free substances. Tannin, gallic acid and ellagic acid were purchased from Sigma Chemical Co. (St. Louis, Mo.).
# The rabbits were fed for 6 weeks while being allowed free access to the diets and water.
# (Step 3) Analysis for fatty streak in the main artery
# The chest of each of the rabbits sacrificed in Step 2 was incised. The downward portion of the main artery from the site 1 cm above the aortic valve was cut out in a length of about 5 cm and the fat surrounding the main artery was removed. The main artery was incised in the middle along the longitudinal axis and pinned to a dish. The moist artery was photographed and, then, the staining of fatty streaks was carried out in accordance with the method of Esper, E., et al. (J. Lab. Clin. Med., 121, 103-110 (1993)) as follows.
# A part of the incised main artery was washed three times with anhydrous propylene glycol for 2 min. and stained for 30 min. with a saturated solution of Oil Red O (ORO, Sigma Co.) dissolved in propylene glycol. Thereafter, the artery was washed twice with 85% propylene glycol for 3 min. to remove remaining staining solution and, then washed with physiological saline. The artery was photographed and the photograph was traced. The area of stained region (fatty streak region) was determined with an image analyzer (LEICA, Q-600, Germany) and its proportion (%) to the total arterial area was calculated.
# FIGS. 1A, 1B and 1C show the arteries of the rabbits administered with 1% cholesterol (Control group); 1% cholesterol plus 1 mg/kg Lovastatin® (Lovastatin® group); 1% cholesterol plus 0.1% ellagic acid, respectively.
Compound,% Inhibition on ACAT activity [1] [%],Fatty streak (proportion of stained region to total arterial area) [2] [%],plaque formation in the endothelium of the main artery [2],deposition of macrophages on the arterial endothelium [2]
"O=C(O)c1cc(O)c(O)c(O)c1 [Gallic acid, gallic acid]",42.1,10 ± 2,inhibit,strongly inhibit
tannin,41.7,13 ± 2,inhibit,strongly inhibit

# Reference: patent US6133311A, “Method for preventing or treating elevated blood lipid level-related diseases by administering natural phenolic compounds” (priority 1998, dated 2000)
